# Species: Rattus norvegicus
# Test: DrugMatrix - Regimen: Daily Repeat
# Assay type: toxicity, organism-based, Sprague-Dawley
# Set-up: regimen Daily Repeat, gender Male, age 6-8 weeks
# Settings: in vivo, po, route oral GAVAGE, vehicle .5 % CMC; for ABSOLUTE BASOPHIL / ABSOLUTE EOSINOPHIL / ABSOLUTE LYMPHOCYTE / ABSOLUTE MONOCYTE / ABSOLUTE SEGMENTED NEUTROPHIL / BASOPHIL / EOSINOPHIL / ERYTHROCYTE COUNT / HEMATOCRIT / HEMOGLOBIN / LEUKOCYTE COUNT / LYMPHOCYTE / MEAN CORPUSCULAR HEMOGLOBIN / MEAN CORPUSCULAR HEMOGLOBIN CONCENTRATION / MEAN CORPUSCULAR VOLUME / MONOCYTE / NEUTROPHIL / NUCLEATED RED BLOOD CELLS / PLATELET COUNT: tissue Blood; for ALANINE AMINOTRANSFERASE / ALBUMIN / ALKALINE PHOSPHATASE / ASPARTATE AMINOTRANSFERASE / BLOOD UREA NITROGEN / CARBON DIOXIDE / CHLORIDE / CHOLESTEROL / CREATINE PHOSPHOKINASE / CREATININE / GLUCOSE / LACTATE DEHYDROGENASE / LIPASE / PHOSPHORUS / POTASSIUM / SODIUM / TOTAL BILIRUBIN / TOTAL PROTEIN / URIC ACID: tissue Plasma
# [1] = 0 mg/kg, 72 h, dose level Control, time 3 day
# [2] = 0 mg/kg, 120 h, dose level Control, time 5 day
# [3] = 55 mg/kg, 72 h, dose level Low, time 3 day
smiles,measurement,setting,value
CCN1CCCC1CNC(=O)c1cc(S(N)(=O)=O)ccc1OC (centres undefined) [SULPIRIDE],ABSOLUTE BASOPHIL,[1],0 CELLS/uL
same,ABSOLUTE EOSINOPHIL,[1],0 CELLS/uL
same,ABSOLUTE LYMPHOCYTE,[1],12269.67 CELLS/uL
same,ABSOLUTE MONOCYTE,[1],160.33 CELLS/uL
same,ABSOLUTE SEGMENTED NEUTROPHIL,[1],970 CELLS/uL
same,BASOPHIL,[1],0%
same,EOSINOPHIL,[1],0%
same,ERYTHROCYTE COUNT,[1],5.76 x10E6/uL
same,HEMATOCRIT,[1],36.57%
same,HEMOGLOBIN,[1],14.22 G/DL
same,LEUKOCYTE COUNT,[1],13.4 x10E3/uL
same,LYMPHOCYTE,[1],91.67%
same,MEAN CORPUSCULAR HEMOGLOBIN,[1],24.67 pg
same,MEAN CORPUSCULAR HEMOGLOBIN CONCENTRATION,[1],38.85 G/DL
same,MEAN CORPUSCULAR VOLUME,[1],63.52 fL
same,MONOCYTE,[1],1.17%
same,NEUTROPHIL,[1],7.17%
same,NUCLEATED RED BLOOD CELLS,[1],0.33 /100WBC
same,PLATELET COUNT,[1],1250.83 x10E3/uL
same,ALANINE AMINOTRANSFERASE,[1],49.17 u/L
same,ALBUMIN,[1],4.33 G/DL
same,ALKALINE PHOSPHATASE,[1],378.5 u/L
same,ASPARTATE AMINOTRANSFERASE,[1],82.17 u/L
same,BLOOD UREA NITROGEN,[1],15 mg/dL
same,CARBON DIOXIDE,[1],34.33 mmol/L
same,CHLORIDE,[1],99.17 MEQ/L
same,CHOLESTEROL,[1],71.17 mg/dL
same,CREATINE PHOSPHOKINASE,[1],258.67 u/L
same,CREATININE,[1],0.18 mg/dL
same,GLUCOSE,[1],142.67 mg/dL
same,LACTATE DEHYDROGENASE,[1],154.33 u/L
same,LIPASE,[1],9 u/L
same,PHOSPHORUS,[1],11.67 mg/dL
same,POTASSIUM,[1],7.13 MEQ/L
same,SODIUM,[1],142.22 MEQ/L
same,TOTAL BILIRUBIN,[1],0.18 mg/dL
same,TOTAL PROTEIN,[1],5.77 G/DL
same,URIC ACID,[1],1.55 mg/dL
same,ABSOLUTE BASOPHIL,[2],0 CELLS/uL
same,ABSOLUTE EOSINOPHIL,[2],23.33 CELLS/uL
same,ABSOLUTE LYMPHOCYTE,[2],14943.67 CELLS/uL
same,ABSOLUTE MONOCYTE,[2],32 CELLS/uL
same,ABSOLUTE SEGMENTED NEUTROPHIL,[2],1084.33 CELLS/uL
same,BASOPHIL,[2],0%
same,EOSINOPHIL,[2],0.17%
same,ERYTHROCYTE COUNT,[2],5.71 x10E6/uL
same,HEMATOCRIT,[2],35.28%
same,HEMOGLOBIN,[2],14.27 G/DL
same,LEUKOCYTE COUNT,[2],16.08 x10E3/uL
same,LYMPHOCYTE,[2],93%
same,MEAN CORPUSCULAR HEMOGLOBIN,[2],25.02 pg
same,MEAN CORPUSCULAR HEMOGLOBIN CONCENTRATION,[2],40.43 G/DL
same,MEAN CORPUSCULAR VOLUME,[2],61.82 fL
same,MONOCYTE,[2],0.17%
same,NEUTROPHIL,[2],6.67%
same,NUCLEATED RED BLOOD CELLS,[2],0.33 /100WBC
same,PLATELET COUNT,[2],1274 x10E3/uL
same,ALANINE AMINOTRANSFERASE,[2],54.17 u/L
same,ALBUMIN,[2],4.22 G/DL
same,ALKALINE PHOSPHATASE,[2],373.17 u/L
same,ASPARTATE AMINOTRANSFERASE,[2],81.83 u/L
same,BLOOD UREA NITROGEN,[2],16.67 mg/dL
same,CARBON DIOXIDE,[2],30.33 mmol/L
same,CHLORIDE,[2],99 MEQ/L
same,CHOLESTEROL,[2],71 mg/dL
same,CREATINE PHOSPHOKINASE,[2],273.5 u/L
same,CREATININE,[2],0.22 mg/dL
same,GLUCOSE,[2],141.83 mg/dL
same,LACTATE DEHYDROGENASE,[2],153.67 u/L
same,LIPASE,[2],10.33 u/L
same,PHOSPHORUS,[2],11.38 mg/dL
same,POTASSIUM,[2],7.08 MEQ/L
same,SODIUM,[2],142.75 MEQ/L
same,TOTAL BILIRUBIN,[2],0.18 mg/dL
same,TOTAL PROTEIN,[2],6.1 G/DL
same,URIC ACID,[2],1.67 mg/dL
same,ABSOLUTE BASOPHIL,[3],0 CELLS/uL
same,ABSOLUTE EOSINOPHIL,[3],0 CELLS/uL
same,ABSOLUTE LYMPHOCYTE,[3],13264 CELLS/uL
same,ABSOLUTE MONOCYTE,[3],100 CELLS/uL
same,ABSOLUTE SEGMENTED NEUTROPHIL,[3],869.33 CELLS/uL
same,BASOPHIL,[3],0%
same,EOSINOPHIL,[3],0%
same,ERYTHROCYTE COUNT,[3],5.78 x10E6/uL
same,HEMATOCRIT,[3],37.4%
same,HEMOGLOBIN,[3],14.93 G/DL
same,LEUKOCYTE COUNT,[3],14.23 x10E3/uL
same,LYMPHOCYTE,[3],93.33%
same,MEAN CORPUSCULAR HEMOGLOBIN,[3],25.87 pg
same,MEAN CORPUSCULAR HEMOGLOBIN CONCENTRATION,[3],39.97 G/DL
same,MEAN CORPUSCULAR VOLUME,[3],64.7 fL
same,MONOCYTE,[3],0.67%
same,NEUTROPHIL,[3],6%
same,NUCLEATED RED BLOOD CELLS,[3],0 /100WBC
same,PLATELET COUNT,[3],1265.67 x10E3/uL
same,ALANINE AMINOTRANSFERASE,[3],40.33 u/L
same,ALBUMIN,[3],4.83 G/DL
same,ALKALINE PHOSPHATASE,[3],335 u/L
same,ASPARTATE AMINOTRANSFERASE,[3],84.67 u/L
same,BLOOD UREA NITROGEN,[3],20.33 mg/dL
same,CARBON DIOXIDE,[3],26 mmol/L
same,CHLORIDE,[3],104 MEQ/L
same,CHOLESTEROL,[3],78.67 mg/dL
same,CREATINE PHOSPHOKINASE,[3],305 u/L
same,CREATININE,[3],0.26 mg/dL
same,GLUCOSE,[3],178.33 mg/dL
same,LACTATE DEHYDROGENASE,[3],183 u/L
same,LIPASE,[3],11.67 u/L
same,PHOSPHORUS,[3],15 mg/dL
same,POTASSIUM,[3],6.9 MEQ/L
same,SODIUM,[3],149.67 MEQ/L
same,TOTAL BILIRUBIN,[3],0.13 mg/dL
same,TOTAL PROTEIN,[3],6.7 G/DL
same,URIC ACID,[3],2.27 mg/dL
